Measurements from PubChem BioAssay (NCI).
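Compound exposure: 48 hours, 5 concentrations, 96-well plates. TGI marks complete inhibition of growth.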 Where a SMILES comes first, the peptide text is derived from it. [ ]: non-standard residue; d: D form. The star is where a group is joined. Cbz = O=C(OCc1ccccc1)*; Boc = CC(C)(C)OC(=O)*; Aib = CC(C)(N)C(=O)O; OBn = c1ccc(CO*)cc1; OtBu = CC(C)(C)O*; βAla = NCCC(=O)O

Experiments:
Assay in all cases: DTP human tumour cell line panel, 48 h
[1] = system: MOLT-4 leukemia
[2] = system: NCI-H460 lung
[3] = system: UO-31 renal
[4] = system: T-47D breast
[5] = system: HCT-116 colon
[6] = system: HT29 colon
[7] = system: LOX IMVI melanoma
[8] = system: HOP-62 NSCLC
[9] = system: BT-549 breast
[10] = system: RXF 393 renal
[11] = system: OVCAR-4 ovarian
[12] = system: CAKI-1 renal
[13] = system: CCRF-CEM leukemia
[14] = system: COLO 205 colon
[15] = system: NCI-H23 lung
[16] = system: A498 renal
[17] = system: MDA-MB-435
[18] = system: NCI-H226 lung
[19] = system: SK-MEL-2 melanoma
[20] = system: SR leukemia
[21] = system: MDA-N
[22] = system: SN12C renal
[23] = system: UACC-257 melanoma
[24] = system: OVCAR-5 ovarian
[25] = system: SW-620 colon
[26] = system: U251 CNS
[27] = system: HOP-92 NSCLC
[28] = system: HS 578T breast
[29] = system: KM12 colon
[30] = system: OVCAR-3 ovarian
[31] = system: SNB-75 CNS
[32] = system: DU-145 prostate
[33] = system: SK-MEL-5 melanoma
[34] = system: TK-10 renal
[35] = system: SK-MEL-28 melanoma
[36] = system: SF-295 CNS
[37] = system: RPMI-8226 leukemia
[38] = system: MCF7 breast
[39] = system: NCI/ADR-RES ovarian
[40] = system: MDA-MB-231 breast
[41] = system: HCT-15 colon
[42] = system: SNB-19 CNS
[43] = system: MALME-3M melanoma
[44] = system: M14 melanoma
[45] = system: OVCAR-8 ovarian
[46] = system: PC-3 prostate
[47] = system: SK-OV-3 ovarian
[48] = system: SF-268 CNS
[49] = system: EKVX NSCLC
[50] = system: NCI-H522 lung
[51] = system: 786-0 renal
[52] = system: HL-60(TB) leukemia
[53] = system: SF-539 CNS
[54] = system: UACC-62 melanoma
[55] = system: ACHN renal
[56] = system: IGROV1 ovarian
[57] = system: A549 NSCLC
[58] = system: K-562 leukemia

Measured: TGI

Nc1nc2c(ncn2C2C=CC(CO)O2)c(=O)[nH]1 (stereo unspecified)
not listed: [47] | [48] | [49] | [50] | [51] | [52] | [53] | [54] | [55] | [56] | [57] | [58]
> 100 µM: all other assays above

CC(C)(C)OC(=O)CC(NC(=O)OC(C)(C)C)C(=O)NC(CCCCNC(=O)OCc1ccccc1)C(=O)NC(C)(C)C(=O)NCCC(=O)OCc1ccccc1 (stereo unspecified) (Boc-D(OtBu)K(Cbz)[Aib][βAla]-OBn; configuration not given here)
not listed: [13] | [19] | [23]
> 100 µM: all other assays above
